Source: patent publication US20260224486A1, “DIANHYDROHEXITOL BASED IONIZABLE LIPIDS FOR NUCLEIC ACID DELIVERY” (SANOFI PASTEUR INC., priority 2023, published 2026)

Key:
[1] = Lipid nanoparticle size and polydispersity index by dynamic light scattering (Malvern Zetasizer); format: physicochemical; conditions: hEPO mRNA LNP, Process A, Cationic Lipid:DMG-PEG2000:Cholesterol:DOPE 40:1.5:28.5:30 mol %, N/P 4
From the text: The lipid nanoparticles in the examples of the present invention were formulated using Process A of WO 2018/089801 (see, e.g., Example 1 and FIG. 1 of WO 2018/089801). Process A (“A”) relates to a conventional method of encapsulating mRNA by mixing mRNA with a mixture of lipids, without first pre-forming the lipids into lipid nanoparticles. In an exemplary process, an ethanolic solution of a mixture of lipids (cationic lipid, phosphatidylethanolamine, cholesterol, and polyethylene glycol-lipid) at a fixed lipid to mRNA ratio were combined with an aqueous buffered solution of target mRNA at an acidic pH under controlled conditions to yield a suspension of uniform LNPs. After ultrafiltration and diafiltration into a suitable diluent system, the resulting nanoparticle suspensions were diluted to final concentration, filtered, and stored frozen at −80° C. until use.
(§1) Lipid nanoparticle formulations of Table 1 were prepared by Process A. All of the lipid nanoparticle formulations comprised hEPO mRNA and the different lipids (Cationic Lipid: DMG-PEG2000: Cholesterol: DOPE) in mol % ratios of 40:1.5:28.5:30 (Cationic Lipid: DMG-PEG2000: Cholesterol: DOPE).
The Polydispersity Index (Pdl) of lipid nanoparticles can be determined by diluting the formulation in 10% trehalose at about 0.1 mg/ml mRNA concentration and then measuring the size on Malvern zetasizer. The lipid nanoparticle size can be obtained with Malvern Zetasizer Nano-ZS.
Dynamic light scattering (DLS) measurements were performed using a Malvern Instruments Zetasizer with a backscattering detector angle of 173° and a 4-mW, 633-nm He—Ne laser (Worcestershire, UK). The samples were analyzed by diluting in 10% Trehalose and measuring the size and Poly dispersity Index (PDI) in an optical grade polystyrene cuvette.

[2] = mRNA encapsulation efficiency of lipid nanoparticles (RiboGreen assay); format: physicochemical; conditions: hEPO mRNA LNP, Process A, Cationic Lipid:DMG-PEG2000:Cholesterol:DOPE 40:1.5:28.5:30 mol %, N/P 4
From the text: In embodiments, the lipid nanoparticle encapsulates a nucleic acid, optionally an mRNA encoding a peptide or protein. In embodiments, the lipid nanoparticle encapsulates an mRNA encoding a peptide or protein, optionally for use in a vaccine. In embodiments, the peptide is an antigen. As used herein, the phrase “encapsulation percentage” refers to the fraction of therapeutic agent (e.g. mRNA) that is effectively encapsulated within a liposomal-based vehicle (e.g. a lipid nanoparticle) relative to the initial fraction of therapeutic agent present in the lipid phase. In embodiments, the lipid nanoparticles have an encapsulation percentage for mRNA of at least 50%. In embodiments, the lipid nanoparticles have an encapsulation percentage for mRNA of at least 55%. In embodiments, the lipid nanoparticles have an encapsulation percentage for mRNA of at least 60%. In embodiments, the lipid nanoparticles have an encapsulation percentage for mRNA of at least 65%. In embodiments, the lipid nanoparticles have an encapsulation percentage for mRNA of at least 70%. In embodiments, the lipid nanoparticles have an encapsulation percentage for mRNA of at least 75%. In embodiments, the lipid nanoparticles have an encapsulation percentage for mRNA of at least 80%. In embodiments, the lipid nanoparticles have an encapsulation percentage for mRNA of at least 85%. In embodiments, the lipid nanoparticles have an encapsulation percentage for mRNA of at least 90%. In embodiments, the lipid nanoparticles have an encapsulation percentage for mRNA of at least 95%. In embodiments, the encapsulation percentage is calculated by performing the Ribogreen assay (Invitrogen) with and without the presence of 0.1% Triton-X 100.
as §1
The RiboGreen Assay is a fluorescence-based method for the determination of mRNA concentration (Total and Free) and % encapsulation using Quant-iT™ RiboGreen® RNA reagent in mRNA containing lipid nanoparticles.
• To each of the standards (Blank, mRNA-1, mRNA-2. mRNA-3, mRNA-4, mRNA-5) and Samples (free mRNA and total mRNA), add 1.0 mL of 200-fold Ribogreen Reagent Solution and gently mix by inversion. This is a 2× Dilution. • Add 200 μL of each standard and sample in triplicate using the reverse pipetting technique in a 96-well Costar Black with Clear Background Plate. Ensure no bubbles are present in the plate before the fluorescence reading. • Read the fluorescence signal using the below instrument parameters: • Read Type: Fluorescence, Bottom Read • Excitation: 485 nm; Cut-off: 515 nm; Emission: 530 nm • Plate Type: 96-well Costar Black with Clear Background
The average fluorescence from each calibration standard is plotted against the concentration to generate a linear calibration curve using the MS Excel software. The coefficient of determination (R^2) of calibration curve must be R^2>0.99.
[formula] • Where, • Y=average fluorescence value • m: slope • x: concentration (pg/mL) • c: y-intercept • Using the linear equation, calculate the concentration of free and total mRNA concentration in the test sample by replacing the y value in the equation with the average fluorescence value of each respective sample • Once the concentration is determined, the actual concentration in the sample can be back-calculated by multiplying the concentration in the test sample with the dilution factor (DF) as follows:
[formula] [formula] • Concentration of encapsulated mRNA can be determined by subtracting the concentration of free mRNA from the total mRNA. • % Encapsulation can then be calculated by taking the ratio of encapsulated mRNA over total mRNA and multiplying the result with 100.

[3] = tested on: BALB/cJ mice; assay: Delivery of hEPO mRNA by intramuscular administration of LNPs; serum hEPO by ELISA; format: in vivo, Mouse
Procedure: In summary, lipid screening studies were conducted with female BALB/cJ mice 6-8 weeks of age. Mice were dosed with 0.1 μg in 30 μL of LNPs by a single intramuscular (IM) injection into the gastrocnemius leg muscle. Blood samples were taken 6 and 24 hours post injection and hEPO levels were measured in the blood serum of the mice using an ELISA assay according to the manufacture's protocol.
Treatment Regimen: On Day 1, animals from Groups 1-33 were dosed via intramuscular injection while under light isoflurane anesthesia according to the study design table above. Animals in Groups 1-33 were injected with EPO mRNA LNPs in the right leg only. Groups 1 and 17 animals received MC3 control.
Interim Sample Collections: Interim whole blood (^~50 μL) was collected by tail snip or saphenous vein at 6 and 24 hours post dose administration (±5%). Blood samples were collected into serum separator tubes, allowed to clot at room temperature for at least 10 minutes, centrifuged at ambient temperature at minimum 1000 g for 10 minutes and the serum was extracted. All serum samples were stored at nominally −70° C. until analysis hEPO by the Testing Facility. The results of the EPO analysis were included in the Data Submission.
Terminal Blood Collections: Whole blood was collected via cardiac puncture into serum separator tube, allowed to clot at room temperature for at least 10 minutes, centrifuged at ambient temperature at minimum 1000 g for 10 minutes and the serum was extracted. Serum samples were stored at nominally −70° C. until analyzed for hEPO by the Test Facility.
ELISA Assay: Human erythropoietin (hEPO) levels in sera samples were determined by ELISA kit (R&D systems, Cat #DEP-00) according to the manufactory instruction and the results were included in the Data Submission. The “shaker” protocol was used. The serum samples were diluted between 1:40 and 1:100.

[4] = Table 3, isomannide-derived lipids, mouse serum 6 hours post single IM injection of 0.1 μg hEPO mRNA LNP

| SMILES | Polydispersity Index (PDI) [1] | Size (nm) [1] [nm] | Encapsulation efficiency (EE) % [2] [%] | hEPO 6 Hr (ng/ml) Mean ([3]; Table 2, isosorbide-derived lipids, mouse serum 6 hours post single IM injection of 0.1 μg hEPO mRNA LNP) [ng/mL] | hEPO 6 Hr (ng/mL) Mean [3, 4] [ng/mL] | hEPO 24 Hr (ng/ml) Mean ([3]; Table 3, isomannide-derived lipids, mouse serum 24 hours post single IM injection of 0.1 μg hEPO mRNA LNP) [ng/mL] |
| --- | --- | --- | --- | --- | --- | --- |
| CCCCCCCCCCCOC(=O)CCCC(O)CN(CCCC(=O)O[C@@H]1CO[C@H]2[C@@H]1OC[C@@H]2OC(=O)CCCN(CC(O)CCCCCCCCCC)CC(O)CCCCCCCCCC)CC(O)CCCCCC(=O)OC(CCCCCCCC)CCCCCCCC (stereo in doubt) [Compound 32] | 0.2 | 94 | 94 | 33.2 |  |  |
| CCCCCCCCC(O)CN(CCCC(=O)O[C@@H]1CO[C@H]2[C@@H]1OC[C@H]2OC(=O)CCCN(CC(O)CCCCCCCC)CC(O)CCCCCCCC)CC(O)CCCCCCCC (stereo partly drawn) [Compound 1] | 0.14 | 93 | 85 |  | 42.5 |  |
| CCCCCCCCC(O)CN(CCCCC(=O)O[C@@H]1CO[C@H]2[C@@H]1OC[C@H]2OC(=O)CCCCN(CC(O)CCCCCCCC)CC(O)CCCCCCCC)CC(O)CCCCCCCC (stereo partly drawn) [Compound 2] | 0.16 | 77 | 68 |  | 36.3 |  |
| CCCCCCCCCCC(O)CN(CCCCC(=O)O[C@@H]1CO[C@H]2[C@@H]1OC[C@H]2OC(=O)CCCCN(CC(O)CCCCCCCCCC)CC(O)CCCCCCCCCC)CC(O)CCCCCCCCCC (stereo partly drawn) [Compound 4] | 0.16 | 78 | 94 |  | 43.2 |  |
| CCCCCCCCCCCCC(O)CN(CCCCC(=O)O[C@@H]1CO[C@H]2[C@@H]1OC[C@H]2OC(=O)CCCCN(CC(O)CCCCCCCCCCCC)CC(O)CCCCCCCCCCCC)CC(O)CCCCCCCCCCCC (stereo partly drawn) [Compound 5] | 0.11 | 107 | 75 |  | 26.3 |  |
| CCCCCCCCCCCCCCC(O)CN(CCCC(=O)O[C@@H]1CO[C@H]2[C@@H]1OC[C@H]2OC(=O)CCCN(CC(O)CCCCCCCCCCCCCC)CC(O)CCCCCCCCCCCCCC)CC(O)CCCCCCCCCCCCCC (stereo partly drawn) [Compound 6] | 0.16 | 114 | 99 |  | 40.9 |  |
| CCCCCCCCCCCCCCC(O)CN(CCCC(=O)O[C@@H]1CO[C@H]2[C@@H]1OC[C@H]2OC(=O)CCCCN(CC(O)CCCCCCCCCC)CC(O)CCCCCCCCCC)CC(O)CCCCCCCCCCCCCC (stereo partly drawn) [Compound 8] | 0.13 | 91 | 95 |  | 25.7 |  |
| CCCCCCCCCCCOC(=O)CCCC(O)CN(CCCC(=O)O[C@@H]1CO[C@H]2[C@@H]1OC[C@H]2OC(=O)CCCN(CC(O)CCCCCCCCCC)CC(O)CCCCCCCCCC)CC(O)CCCCCC(=O)OC(CCCCCCCC)CCCCCCCC (stereo partly drawn) [Compound 9] | 0.1 | 114 | 91 |  | 30.7 | 19.8 |
| CCCCCCCCCCCOC(=O)CCCC(O)CN(CCCC(=O)O[C@@H]1CO[C@H]2[C@@H]1OC[C@H]2OC(=O)CCCN(CC(O)CCCCCC(=O)OC(CCCCCCCC)CCCCCCCC)CC(O)CCCC(=O)OCCCCCCCCCCC)CC(O)CCCCCC(=O)OC(CCCCCCCC)CCCCCCCC (stereo partly drawn) [Compound 11] | 0.1 | 120 | 94 |  | 36 |  |
| CCCCCC/C=C\COC(=O)CCCCCC(O)CN(CCCC(=O)O[C@@H]1CO[C@H]2[C@@H]1OC[C@H]2OC(=O)CCCN(CC(O)CCCCCCCCCC)CC(O)CCCCCCCCCC)CC(O)CCCCCC(=O)OC/C=C\CCCCCC (stereo partly drawn) [Compound 15] | 0.11 | 88 | 91 |  | 22.8 |  |
| CCCCCC/C=C\COC(=O)CCCCCC(O)CN(CCCC(=O)O[C@@H]1CO[C@H]2[C@@H]1OC[C@H]2OC(=O)CCCN(CC(O)CCCCCC(=O)OC/C=C\CCCCCC)CC(O)CCCCCC(=O)OC/C=C\CCCCCC)CC(O)CCCCCC(=O)OC/C=C\CCCCCC (stereo partly drawn) [Compound 16] | 0.11 | 84 | 77 |  | 9.4 |  |
